Source: patent US20140017223A1, “Pharmaceutical Compositions Comprising A Pancreatic Enzyme Preparation With Viral Infectivity Reduced Below A Significant Level And Methods Of Preparing And Using The Same” (Aptalis Pharma Canada Inc., priority 2010, published 2014)

Tests used:
EMCV = experiment: Inactivation of spiked EMCV in pancrelipase by BPL, TCID50 titration on VERO cells (Example 2); format: cell-based, porcine encephalomyocarditis virus (EMCV); details: 48 h, 20° C.; for Detected EMCV titer: 0*=below detection limit of 10^3 TCID50/g
Experimental: Four different lots of pancrelipase powders were dissolved in 100 mM Tris, pH=8.3, at a concentration of 100 mg/ml. EMCV virus stock (prepared by Meng X J, Paul P S, Vaughn E M, Zimmerman J J. Development of a radiolabeled nucleic acid probe for the detection of encephalomyocarditis virus of swine. J Vet Diagn Invest. 1993 5:254-8) was mixed with the pancrelipase using slow shaking at room temperature for one day such that the final concentration of pancrelipase was 100 mg/ml. Aliquots were taken from the EMCV-spiked pancrelipase stocks and each was incubated with different concentrations of BPL (available from Sigma-Aldrich, St. Louis, Mo.) (except the control) for 48 hours at room temperature (20° C.). The level of inactivation was measured by the titration of EMCV infectivity on VERO cells using serial dilutions and determining the TCID50 as described in Hierholzer, J. C., Killington, R. A., 1996. Virus isolation and quantitation. In: Mahy, B. W. J., Kangro, H. O. (Eds.), Virology methods manual. Academic Press, London, pp. 25-46.

PPV = experiment: Inactivation of PPV by BPL (30 min, 25° C.) measured from frozen and lyophilized samples (Example 10); format: cell-based, porcine parvovirus (PPV)
Experimental: 4.5 g pancrelipase (PEP) powder was dissolved in 44 ml ice cold 100 mM Tris (pH=8.3) by frequently mixing a 50-ml plastic tube that was kept on ice most of the time except when shaking. The dissolved sample was spiked with 1 ml (2×0.5 ml) PPV stock (prepared at the Institut National de la Recherche Scientifique, Québec, Canada using standard protocols (Arella et al., Physicichemical properties, production, and purification of parvoviruses. 1990, In Tijssen, P. (ed.), CRC handbook of parvoviruses. Boca Raton, Fla.: CRC Press, 11-30)) 10^7 FFID50/ml; see Example 8 and Table 8) and was mixed for another 10 minutes.
Three aliquots of the dissolved pancrelipase were transferred into tubes (A-C) and kept on ice while (A) no BPL—the control), (B) (0.4 vol % BPL), or (C) (0.8 vol % BPL) was added to them. After a brief mixing by a vortex machine, the tubes were incubated for 30 minutes at 25° C. At the end of the incubation, the tubes were transferred on to ice and immediately four aliquots were transferred from each experimental condition into new tubes (a-d). These tubes were placed into the mixture of acetone/dry ice for fast freezing. Later, the samples were stored at −80° C.
The experiment above was repeated two more times (altogether: experiments 1-3).
The frozen samples were lyophilized at −45° C. for two days, and the pancrelipase powders were kept at 4-10° C. Samples a-b from all the experiments were dissolved in water. Infectivity measurements were done with diluted samples using the 400 times diluted samples as the lowest dilution step to determine the FFID50. To easily compare the results for the different experiments, all of the obtained infectivity data were converted to specific infectivity (FFID50/gram PEP). See Example 10 and Table 10.
Inactivation results for PEP samples containing PPV inactivated by BPL at 25° C. for 30 min which was subsequently inactivated by freezing followed by lyophilization are presented in Table 10.

protease = experiment: Protease activity of pancrelipase after BPL treatment, freezing and lyophilization (USP 31 method); format: biochemical; details: for Loss of Protease Activity: pancrelipase, freezing, lyophilization, precision 5-10%
Experimental: Enzymatic activity for the enzymes of a PEP (e.g., proteases, lipases, and amylases) can be determined, for example, by using the United States Pharmacopeia (USP) monographed methods (The United States Pharmacopeia and the National Formulary (USP 31/NF 26). 2008. Rockville (MD): United States Pharmacopeial Convention, Inc.).
The samples c-d from all the experiments were tested for lipase, protease, and amylase enzymatic activity using USP 31 monographed methods. See Example 11 and Table 11.
Table 11 presents the lipase, protease, and amylase activity for aliquots of the pancrelipase after BPL treatment for 30 min at 25° C. followed by freezing and lyophilization (same treatment as for samples in Example 10).

## O=C1CCO1 [BPL, Beta-propiolactone]
EMCV; PEP #1, 0.1% (v/v) BPL
  EMCV Titer reduction: 1.33 × 10^2 TCID50/g
  Detected EMCV titer: 4.22 × 10^5 TCID50/g
EMCV; PEP #1, 0.2% (v/v) BPL
  EMCV Titer reduction: >10^5 TCID50/g
  Detected EMCV titer: < 0* TCID50/g
EMCV; PEP #1, 0.4% (v/v) BPL
  EMCV Titer reduction: >10^5 TCID50/g
  Detected EMCV titer: < 0* TCID50/g
EMCV; PEP #1, 0.8% (v/v) BPL
  EMCV Titer reduction: >10^5 TCID50/g
  Detected EMCV titer: < 0* TCID50/g
EMCV; PEP #2, 0.1% (v/v) BPL
  EMCV Titer reduction: 1.78 × 10^2 TCID50/g
  Detected EMCV titer: 3.16 × 10^5 TCID50/g
EMCV; PEP #2, 0.2% (v/v) BPL
  EMCV Titer reduction: >10^5 TCID50/g
  Detected EMCV titer: < 0* TCID50/g
EMCV; PEP #2, 0.4% (v/v) BPL
  EMCV Titer reduction: >10^5 TCID50/g
  Detected EMCV titer: < 0* TCID50/g
EMCV; PEP #2, 0.8% (v/v) BPL
  EMCV Titer reduction: >10^5 TCID50/g
  Detected EMCV titer: < 0* TCID50/g
EMCV; PEP #3, 0.1% (v/v) BPL
  EMCV Titer reduction: >10^5 TCID50/g
  Detected EMCV titer: < 0* TCID50/g
EMCV; PEP #3, 0.2% (v/v) BPL
  EMCV Titer reduction: >10^5 TCID50/g
  Detected EMCV titer: < 0* TCID50/g
EMCV; PEP #3, 0.4% (v/v) BPL
  EMCV Titer reduction: >10^5 TCID50/g
  Detected EMCV titer: < 0* TCID50/g
EMCV; PEP #3, 0.8% (v/v) BPL
  EMCV Titer reduction: >10^5 TCID50/g
  Detected EMCV titer: < 0* TCID50/g
EMCV; PEP #4, 0.1% (v/v) BPL
  EMCV Titer reduction: 1.33 × 10^3 TCID50/g
  Detected EMCV titer: 7.50 × 10^4 TCID50/g
EMCV; PEP #4, 0.2% (v/v) BPL
  EMCV Titer reduction: >10^5 TCID50/g
  Detected EMCV titer: < 0* TCID50/g
EMCV; PEP #4, 0.4% (v/v) BPL
  EMCV Titer reduction: >10^5 TCID50/g
  Detected EMCV titer: < 0* TCID50/g
EMCV; PEP #4, 0.8% (v/v) BPL
  EMCV Titer reduction: >10^5 TCID50/g
  Detected EMCV titer: < 0* TCID50/g
PPV; 0.4% BPL
  Reduction of PPV titer: 0.27 × 10^3 FFID50/g
PPV; 0.8% BPL
  Reduction of PPV titer: 1.55 × 10^6 FFID50/g
PPV; 0.8% BPL, 0* means under detection limit
  Average Results (per sample a/b): < 0* FFID50/g
PPV; 0.8% BPL, experiments C1-C3, 0* means under detection limit
  Average Results (per experiment): < 0* FFID50/g
PPV; 0.8% BPL, samples C1a-C3b, 0* means under detection limit
  PPV infectivity (single determinations): < 0* FFID50/g
protease; lyophilized samples treated with 0.4% BPL and 0.8% BPL
  Protease activity maintained: maintained the majority
protease; 0.4% BPL 30 min 25° C.
  Loss of Protease Activity: 0%
protease; 0.8% BPL 30 min 25° C.
  Loss of Protease Activity: 0%
